The record followed here is patent US7339080B2, “Method for the production of diaminoxylene by continuous hydrogenation of liquid phthalonitrile” (BASF Aktiengesellschaft, priority 2003, dated 2008).

SMILES strings stand for the structures.

This data set can be described thus: solubility of IPN in process solvents (MXDA, liquid ammonia). In kind it is physicochemical.

For `N#Cc1cccc(C#N)c1` [IPN, 1,3-dicyanobenzene], the “solubility of IPN in MXDA” value (in MXDA at 70° C.) is given as “approx. 20 % by weight”. Besides, the “solubility of IPN in NH3” value (in liquid ammonia (NH3) at 40° C.) is given as “approx. 45 % by weight”.
